# Assay results reported in patent US8232270B2, “Bivalent (−)-meptazinol compounds and/or their salts, and their preparation and futilization” (priority 2006, dated 2012).
# “And” between values parts separate entries of the source, which are not always exact repeats. Equal entries are not always repeated. Structures can show the parent of a compound that is named as a salt.
# How the values were obtained:
# [1] = target: T1, AChE-induced Aβ (1-40) aggregation (human recombinant AChE) (Homo sapiens, UniProt P22303); experiment: Inhibition of AChE-induced Aβ aggregation, thioflavin T fluorescence; format: biochemical; conditions: for inhibition at 100 µM: inhibitor 100 μM, read-out: Inhibition (%) 100 μM ± SEM; for inhibition at 400 µM: read-out: Inhibition (%) 400 μM ± SEM; for IC50: extrapolated from inhibition curves, read-out: IC50 ± SEM, AChE-induced Aβ aggregation; for inhibition of AChE-induced Aβ aggregation, factor compared with propidium: relative to propidium
# T1 construct: purchased Sigma-Aldrich
# Protocol: Aliquots of 2 μL Aβ (1-40) peptide (Biosource), lyophilized from 2 mg/mL HFIP solution and dissolved in DMSO, were incubated for 48 h at room temperature in 0.215 M sodium phosphate buffer (pH 8.0) at a concentration of 230 μM. For coincubation experiments, aliquots (16 μL) of human recombinant AChE (Sigma-Aldrich) (final concentration of 2.3 μM) and AChE in the presence of 2 μL of the tested inhibitors were added. Each assay was run in duplicate. To quantify amyloid fibril formation, the thioflavin T fluorescence method was then applied.
# Fluorescence was monitored with excitation at 446 nm and emission at 490 nm. The percent inhibition of the AChE-induced aggregation due to the presence of increasing concentrations of the inhibitor was calculated by the following expression: 100−(IFi/IFo×100), where IFi and IFo were the fluorescence intensities obtained for Aβ plus AChE in the presence and in the absence of inhibitor, respectively, after subtracting the fluorescence of respective blanks. Inhibition curves and linear regression parameters were obtained for each compound, and the IC50 was extrapolated.
# [2] = target: T2, mice brain AChE (Mus musculus, UniProt P21836); conditions: background statement; cited from earlier work
# T2 construct: Mice brain homogenate prepared in saline was used as a source of AChE; from tissue; host or cells: mouse brain homogenate
# T2 sequence (P21836 32-614): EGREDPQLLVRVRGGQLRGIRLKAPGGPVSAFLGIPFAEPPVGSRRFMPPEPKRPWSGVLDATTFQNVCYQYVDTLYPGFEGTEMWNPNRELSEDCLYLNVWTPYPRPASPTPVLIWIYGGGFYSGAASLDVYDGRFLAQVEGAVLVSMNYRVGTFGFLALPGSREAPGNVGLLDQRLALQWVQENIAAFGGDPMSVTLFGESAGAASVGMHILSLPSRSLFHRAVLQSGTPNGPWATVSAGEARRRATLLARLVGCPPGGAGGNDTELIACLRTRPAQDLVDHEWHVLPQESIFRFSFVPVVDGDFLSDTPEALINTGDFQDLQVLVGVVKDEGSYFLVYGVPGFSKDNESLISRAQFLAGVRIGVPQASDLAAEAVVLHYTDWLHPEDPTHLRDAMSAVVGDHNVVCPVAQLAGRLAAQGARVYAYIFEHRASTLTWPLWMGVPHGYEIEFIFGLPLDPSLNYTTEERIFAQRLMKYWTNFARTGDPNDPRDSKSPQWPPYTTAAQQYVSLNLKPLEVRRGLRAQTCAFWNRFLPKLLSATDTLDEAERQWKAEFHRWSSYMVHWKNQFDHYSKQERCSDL
# [3] = target: T3, mice serum BChE (Mus musculus, UniProt Q03311); experiment: BChE inhibition, Ellman spectrophotometric assay, mice serum; format: biochemical; conditions: for IC50: mean ± SEM, at least three measures, butyrylthiocholine iodide substrate
# T3 construct: mice serum was the source of BChE; from tissue; host or cells: mouse serum
# Protocol: (§1) AChE inhibiting activities were measured by a spectrophotometric assay developed by Ellman et al. It was based on the fact that AChE catalyzes the hydrolysis of acetylcholine, releasing choline and acetic acid. In this assay, acetylthiocholine (AChSC) is hydrolyzed by the enzyme, releasing thiocholine containing a sulfhydrylic group able to react with color indicating reagent. Yellowish products were measured spectrophotometrically, the amount of which reflects the activity of AChE. All the procedures were operated according to the instruction of the AChE reagent kit produced by Nanjing Jiancheng Bio-engineering Institute. Mice brain homogenate prepared in saline was used as a source of AChE; mice serum was the source of BChE.
# The AChE activity was determined in a reaction mixture containing 200 μL of a solution of AChE (0.415 U/mL in 0.1 M phosphate buffer, pH 8.0), 300 μL of a solution of 5,5′-dithio-bis(2-nitrobenzoic) acid (3.3 mM DTNB in 0.1 M phosphate buffered solution, pH 7.0, containing NaHCO3 6 mM), and 30 μL of a solution of the inhibitor (six to seven concentrations). After incubation for 20 min at 37° C., acetylthiocholine iodide (300 μL of 0.05 mM water solution) was added as the substrate, and AChE activity was determined by UV spectrophotometry from the absorbance changes at […] for 3 min at 25° C. […] BChE inhibitory activity determinations were similarly carried out using butyrylthiocholine iodide (0.05 mM) as the substrate. Results are reported as the means ±SEM of IC50 obtained from at least three independent measures.
# [4] = target: T2, mice brain AChE; experiment: AChE inhibition, Ellman spectrophotometric assay, mice brain homogenate; format: biochemical; conditions: for IC50: mean ± SEM, at least three measures, hydrochlorides, 20 min preincubation at 37° C.; for AChE selectivity: mice serum BChE versus mice brain AChE IC50
# Protocol: as §1
# After incubation for 20 min at 37° C., acetylthiocholine iodide (300 μL of 0.05 mM water solution) was added as the substrate, and AChE activity was determined by UV spectrophotometry from the absorbance changes at […] for 3 min at 25° C. […] BChE inhibitory activity determinations were similarly carried out using butyrylthiocholine iodide (0.05 mM) as the substrate. Results are reported as the means ±SEM of IC50 obtained from at least three independent measures.
# [5] = inhibitor 400 μM, Aβ 230 μM, AChE 2.3 μM, 48 h
# [6] = relative to (−)-MEP (hydrochloride)
# T3 sequence (Q03311 30-603): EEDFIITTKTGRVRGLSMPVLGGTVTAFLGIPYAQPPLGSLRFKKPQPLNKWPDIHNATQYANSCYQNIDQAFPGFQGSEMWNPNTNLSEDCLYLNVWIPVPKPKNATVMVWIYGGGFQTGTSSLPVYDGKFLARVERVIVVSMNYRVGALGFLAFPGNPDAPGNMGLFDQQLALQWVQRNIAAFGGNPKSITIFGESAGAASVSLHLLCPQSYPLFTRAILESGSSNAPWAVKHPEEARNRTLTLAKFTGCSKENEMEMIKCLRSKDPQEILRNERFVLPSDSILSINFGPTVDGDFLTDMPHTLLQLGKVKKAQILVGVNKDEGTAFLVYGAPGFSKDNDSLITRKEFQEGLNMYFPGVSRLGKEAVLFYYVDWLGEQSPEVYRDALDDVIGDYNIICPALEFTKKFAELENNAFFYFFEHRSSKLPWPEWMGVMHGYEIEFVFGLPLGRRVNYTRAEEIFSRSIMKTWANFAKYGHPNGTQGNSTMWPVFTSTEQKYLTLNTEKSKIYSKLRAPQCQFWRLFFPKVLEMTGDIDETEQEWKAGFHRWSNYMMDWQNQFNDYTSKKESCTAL
# T1 sequence (P22303 32-614): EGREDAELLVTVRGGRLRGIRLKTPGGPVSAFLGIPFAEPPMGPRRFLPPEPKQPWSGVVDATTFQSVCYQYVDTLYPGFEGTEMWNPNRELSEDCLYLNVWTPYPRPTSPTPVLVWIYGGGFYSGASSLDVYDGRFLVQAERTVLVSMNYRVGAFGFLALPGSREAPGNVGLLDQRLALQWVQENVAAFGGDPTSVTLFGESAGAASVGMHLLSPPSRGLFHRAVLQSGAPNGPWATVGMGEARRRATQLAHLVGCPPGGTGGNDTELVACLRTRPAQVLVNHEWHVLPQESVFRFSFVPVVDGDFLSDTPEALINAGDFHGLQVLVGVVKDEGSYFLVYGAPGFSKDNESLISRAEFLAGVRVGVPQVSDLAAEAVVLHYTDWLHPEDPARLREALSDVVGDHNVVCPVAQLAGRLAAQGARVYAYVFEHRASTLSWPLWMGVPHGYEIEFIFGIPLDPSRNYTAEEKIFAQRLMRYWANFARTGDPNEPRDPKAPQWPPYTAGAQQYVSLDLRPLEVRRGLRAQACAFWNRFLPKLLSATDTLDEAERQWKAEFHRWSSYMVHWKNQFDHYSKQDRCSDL
Compound,IC50 [3],IC50 [4],AChE selectivity [4],"inhibition at 100 µM ([1]; Aβ 230 μM, AChE 2.3 μM, 48 h)","inhibition at 400 µM [1, 5]",further results
"CCC1(c2cccc(O)c2)CCCCN(C)C1 (single isomer, unassigned; (-)) [(−)-meptazinol]",15000 ± 4000 nM,41000 ± 14000 nM,0.37,,,"Inhibition (%) 400 μM ± SEM [1, 5]: 0%; mice brain AChE inhibition test, result in words [2]: potent AChE inhibitor"
"CC[C@@]1(c2cccc(O)c2)CCCCN(CCN2CCCC[C@@](CC)(c3cccc(O)c3)C2)C1 [(A = CH2, n = 2)]",125 ± 9 nM,43000 ± 20000 nM,0.0029,,,
"CC[C@@]1(c2cccc(O)c2)CCCCN(CCCN2CCCC[C@@](CC)(c3cccc(O)c3)C2)C1 [(A = CH2, n = 3)]",132 ± 51 nM,42000 ± 14000 nM,0.0031,,,
"CC[C@@]1(c2cccc(O)c2)CCCCN(CCCCN2CCCC[C@@](CC)(c3cccc(O)c3)C2)C1 [(A = CH2, n = 4), N,N′-(1′,4′-Butylene)-bis-(−)-nor-MEP Hydrochloride]",104 ± 29 nM,21400 ± 7600 nM,0.0049,,,
"CC[C@@]1(c2cccc(O)c2)CCCCN(CCCCCN2CCCC[C@@](CC)(c3cccc(O)c3)C2)C1 [(A = CH2, n = 5)]",192 ± 41 nM,4000 ± 1000 nM,0.048,,,
"CC[C@@]1(c2cccc(O)c2)CCCCN(CCCCCCN2CCCC[C@@](CC)(c3cccc(O)c3)C2)C1 [(A = CH2, n = 6)]",119 ± 20 nM,1220 ± 20 nM,0.098,,,
"CC[C@@]1(c2cccc(O)c2)CCCCN(CCCCCCCN2CCCC[C@@](CC)(c3cccc(O)c3)C2)C1 [(A = CH2, n = 7)]",102 ± 19 nM,270 ± 70 nM,0.38,,,
"CC[C@@]1(c2cccc(O)c2)CCCCN(CCCCCCCCN2CCCC[C@@](CC)(c3cccc(O)c3)C2)C1 [(A = CH2, n = 8)]",63 ± 8 nM,79 ± 19 nM,0.80,0%,0.15 ± 0.2%,
"CC[C@@]1(c2cccc(O)c2)CCCCN(CCCCCCCCCN2CCCC[C@@](CC)(c3cccc(O)c3)C2)C1 [(A = CH2, n = 9), N,N′-(1′,9′-Nonylene)-bis-(−)-nor-MEP Hydrochloride]",10 nM,3.9 nM,2.6,74.4 ± 4.3%,91.7 ± 3.6%,"IC50 [1]: 79000 nM and 79400 nM; inhibition of AChE-induced Aβ aggregation, factor compared with propidium [1]: ~2 times; BChE inhibition, times more potent than (−)-MEP [3, 6]: 1500 times; BChE inhibition, times more potent than rivastigmine ([3]; relative to rivastigmine): 150 times; selectivity for AChE, times that of (−)-MEP ([4]; relative to (−)-MEP): 7 times; fold increase in inhibiting mice brain AChE compared with (−)-MEP [4, 6]: 10000 fold; fold increase in inhibiting mice brain AChE compared with rivastigmine ([4]; relative to rivastigmine): 1400 fold; selectivity for AChE, times that of rivastigmine ([4]; relative to rivastigmine): 9 times"
"CC[C@@]1(c2cccc(O)c2)CCCCN(CCCCCCCCCCN2CCCC[C@@](CC)(c3cccc(O)c3)C2)C1 [(A = CH2, n = 10)]",17 ± 6 nM,9.5 ± 4.5 nM,1.8,66.6 ± 1.7%,81.8 ± 1.2%,"IC50 [1]: 83000 nM and 83400 nM; inhibition of AChE-induced Aβ aggregation, factor compared with propidium [1]: ~2 times"
"CC[C@@]1(c2cccc(O)c2)CCCCN(CCCCCCCCCCCN2CCCC[C@@](CC)(c3cccc(O)c3)C2)C1 [(A = CH2, n = 11)]",74 ± 11 nM,24 ± 8 nM,3.1,,,
"CC[C@@]1(c2cccc(O)c2)CCCCN(CCCCCCCCCCCCN2CCCC[C@@](CC)(c3cccc(O)c3)C2)C1 [(A = CH2, n = 12)]",100 ± 55 nM,42 ± 20 nM,2.4,,,
"CC[N+](C)(CC)CCC[n+]1c(-c2ccccc2)c2cc(N)ccc2c2ccc(N)cc21 [Propidium iodine, reference compound]",,,,16.7 ± 4.4%,79.2 ± 5.9%,
